Measurements from patent US6737383B1, “Herbicidal oxadiazolidines” (priority 1999, dated 2004).

Key:
[1] = tested on: sugar beet; experiment: Test B pre/postemergence sugar beet; assay type: in vivo, Beta vulgaris
In short: (§1)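 Response is a visual 0-to-10 score relative to untreated plants, where 0 means no effect and 10 means complete control, taken twelve to sixteen days after application. Treatments went onto soil at planting and onto foliage of 1- to 4-leaf plants, using a surfactant-containing non-phytotoxic solvent.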

[2] = tested on: surinam grass; experiment: Test B pre/postemergence surinam grass; assay type: in vivo, Brachiaria decumbens
In short: as §1

[3] = tested on: wild oat; experiment: Test B pre/postemergence wild oat; assay type: in vivo, Avena fatua
In short: as §1

[4] = tested on: pigweed; experiment: Test B pre/postemergence pigweed; assay type: in vivo, Amaranthus retroflexus
In short: as §1

[5] = tested on: soybean; experiment: Test B pre/postemergence soybean; assay type: in vivo, Glycine max
In short: as §1

[6] = tested on: purple nutsedge; experiment: Test B pre/postemergence purple nutsedge; assay type: in vivo, Cyperus rotundus
In short: as §1

[7] = tested on: rape; experiment: Test B pre/postemergence rape; assay type: in vivo, Brassica napus
In short: as §1

[8] = tested on: wheat; experiment: Test B pre/postemergence wheat; assay type: in vivo, Triticum aestivum
In short: as §1

[9] = tested on: blackgrass; experiment: Test B pre/postemergence blackgrass; assay type: in vivo, Alopecurus myosuroides
In short: as §1

[10] = tested on: crabgrass; experiment: Test B pre/postemergence crabgrass; assay type: in vivo, Digitaria sanguinalis
In short: as §1

[11] = tested on: cocklebur; experiment: Test B pre/postemergence cocklebur; assay type: in vivo, Xanthium strumarium
In short: as §1

[12] = tested on: corn; experiment: Test B pre/postemergence corn; assay type: in vivo, Zea mays
In short: as §1

[13] = tested on: velvetleaf; experiment: Test B pre/postemergence velvetleaf; assay type: in vivo, Abutilon theophrasti
In short: as §1

[14] = tested on: bedstraw; experiment: Test B pre/postemergence bedstraw; assay type: in vivo, Galium aparine
In short: as §1

[15] = tested on: giant foxtail; experiment: Test B pre/postemergence giant foxtail; assay type: in vivo, Setaria faberii
In short: as §1

[16] = tested on: morningglory; experiment: Test B pre/postemergence morningglory; assay type: in vivo, Ipomoea hederacea
In short: as §1

[17] = Postemergence, Rate 62 g/ha, scale 0 to 10, 0 is no effect, 10 is complete control
[18] = Postemergence, Rate 500 g/ha, scale 0 (no effect) to 10 (complete control)
[19] = Rate 62 g/ha, Preemergence, scale 0 to 10
[20] = Rate 125 g/ha, Preemergence, scale 0 to 10 (0 no effect, 10 complete control)
[21] = Rate 250 g/ha, Postemergence, scale 0 to 10, 0 is no effect, 10 is complete control
[22] = Rate 500 g/ha, Preemergence, scale 0 to 10 (0 no effect, 10 complete control)
[23] = Postemergence, Rate 125 g/ha, scale of 0 to 10 where 0 is no effect and 10 is complete control
[24] = Preemergence, Rate 250 g/ha, scale 0 (no effect) to 10 (complete control)

CCOC(CC)n1c(=O)on(C(=O)N(c2ccc(Cl)cc2)C(C)C)c1=O (stereo not drawn) [Compound 772]
0: Plant response rating, Sugarbeets [1, 17] | Sugarbeets plant response rating [1, 18] | Sugarbeets plant response rating [1, 19] | Sugarbeets plant response rating [1, 20] | Sugarbeets plant response rating [1, 21] | Sugarbeets plant response rating [1, 22] | Plant response rating, B. signalgrass [2, 17] | B. signalgrass plant response rating [2, 23] | B. signalgrass plant response rating [2, 24] | B. signalgrass plant response rating ([2]; Rate 62 g/ha, Preemergence, scale 0 (no effect) to 10 (complete control)) | B. signalgrass plant response rating [2, 20] | B. signalgrass plant response rating [2, 21] | B. signalgrass plant response rating ([2]; Rate 500 g/ha, Postemergence, scale 0 to 10, 0 is no effect, 10 is complete control) | B. signalgrass plant response rating [2, 22] | Plant response rating, Wild oats [3, 17] | Wild oats plant response rating [3, 18] | Wild oats plant response rating [3, 19] | Wild oats plant response rating [3, 20] | Wild oats plant response rating [3, 21] | Wild oats plant response rating [3, 22] | Plant response rating, Redroot pigweed [4, 17] | Redroot pigweed plant response rating [4, 23] | Redroot pigweed plant response rating [4, 18] | Redroot pigweed plant response rating [4, 19] | Redroot pigweed plant response rating [4, 20] | Redroot pigweed plant response rating [4, 21] | Redroot pigweed plant response rating [4, 22] | Plant response rating, Soybean [5, 17] | Soybean plant response rating [5, 18] | Soybean plant response rating [5, 19] | Soybean plant response rating [5, 20] | Soybean plant response rating [5, 21] | Soybean plant response rating [5, 22] | Plant response rating, Nutsedge [6, 17] | Nutsedge plant response rating [6, 23] | Nutsedge plant response rating [6, 18] | Nutsedge plant response rating [6, 19] | Nutsedge plant response rating [6, 20] | Nutsedge plant response rating [6, 21] | Nutsedge plant response rating [6, 22] | Plant response rating, Rape [7, 17] | Rape plant response rating [7, 23] | Rape plant response rating [7, 18] | Rape plant response rating [7, 19] | Rape plant response rating [7, 20] | Rape plant response rating [7, 21] | Rape plant response rating [7, 22] | Plant response rating, Wheat [8, 17] | Wheat plant response rating [8, 18] | Wheat plant response rating [8, 19] | Wheat plant response rating [8, 20] | Wheat plant response rating [8, 21] | Wheat plant response rating [8, 22] | Plant response rating, Blackgrass [9, 17] | Blackgrass plant response rating [9, 23] | Blackgrass plant response rating [9, 18] | Blackgrass plant response rating [9, 24] | Blackgrass plant response rating [9, 19] | Blackgrass plant response rating [9, 20] | Blackgrass plant response rating [9, 21] | Blackgrass plant response rating [9, 22] | Plant response rating, Crabgrass [10, 17] | Crabgrass plant response rating [10, 23] | Crabgrass plant response rating [10, 18] | Crabgrass plant response rating [10, 24] | Crabgrass plant response rating [10, 19] | Crabgrass plant response rating [10, 20] | Crabgrass plant response rating [10, 21] | Crabgrass plant response rating [10, 22] | Plant response rating, Cocklebur [11, 17] | Cocklebur plant response rating [11, 23] | Cocklebur plant response rating [11, 18] | Cocklebur plant response rating [11, 24] | Cocklebur plant response rating [11, 19] | Cocklebur plant response rating [11, 20] | Cocklebur plant response rating [11, 21] | Cocklebur plant response rating [11, 22] | Plant response rating, Corn [12, 17] | Corn plant response rating [12, 23] | Corn plant response rating [12, 18] | Corn plant response rating [12, 24] | Corn plant response rating [12, 19] | Corn plant response rating [12, 20] | Corn plant response rating [12, 21] | Corn plant response rating [12, 22] | Plant response rating, Velvetleaf [13, 17] | Velvetleaf plant response rating [13, 18] | Velvetleaf plant response rating [13, 19] | Velvetleaf plant response rating [13, 20] | Velvetleaf plant response rating [13, 21] | Velvetleaf plant response rating [13, 22] | Plant response rating, Bedstraw [14, 17] | Bedstraw plant response rating [14, 23] | Bedstraw plant response rating [14, 18] | Bedstraw plant response rating [14, 24] | Bedstraw plant response rating [14, 19] | Bedstraw plant response rating [14, 20] | Bedstraw plant response rating [14, 21] | Bedstraw plant response rating [14, 22] | Plant response rating, Giant foxtail [15, 17] | Giant foxtail plant response rating [15, 23] | Giant foxtail plant response rating [15, 18] | Giant foxtail plant response rating [15, 24] | Giant foxtail plant response rating [15, 19] | Giant foxtail plant response rating [15, 20] | Giant foxtail plant response rating [15, 21] | Giant foxtail plant response rating [15, 22] | Plant response rating, Morningglory [16, 17] | Morningglory plant response rating [16, 23] | Morningglory plant response rating [16, 19] | Morningglory plant response rating [16, 20] | Morningglory plant response rating [16, 21] | Morningglory plant response rating [16, 22]
2: Morningglory plant response rating [16, 18]
